Experimental data as given in ChEMBL document CHEMBL3046085, “Synthesis, characterization and in vitro cytotoxic properties of some new Schiff and Mannich bases in Hep G2 cells” (Med Chem Res, 2011).
≈ marks a conversion by molar mass, not a printed value.

Experiments:
HepG2 [1] = test: Cytotoxicity against Homo sapiens (human) HepG2 cells after 24 hr by MTT assay; format: functional, cell-based; conditions: HepG2, 24 h
HepG2 [2] = test: Cytotoxicity against Homo sapiens (human) HepG2 cells assessed as cell survival at 0.1 g/l after 24 hr by MTT assay (reference value: 78.07 +/- 1.89 to 95.31 +/- 3.09%); format: functional; conditions: HepG2, 24 h, read-out: Survival
HepG2 [3] = test: Cytotoxicity against Homo sapiens (human) HepG2 cells assessed as cell survival at 0.01 g/l after 24 hr by MTT assay (reference value: 78.07 +/- 1.89 to 95.31 +/- 3.09%); format: functional; conditions: HepG2, 24 h, read-out: Survival
HepG2 [4] = test: Cytotoxicity against Homo sapiens (human) HepG2 cells assessed as cell survival at 0.001 g/l after 24 hr by MTT assay (reference value: 78.07 +/- 1.89 to 95.31 +/- 3.09%); format: functional; conditions: HepG2, 24 h, read-out: Survival
HepG2 [5] = test: Cytotoxicity against Homo sapiens (human) HepG2 cells assessed as cell survival at 0.0001 g/l after 24 hr by MTT assay (reference value: 78.07 +/- 1.89 to 95.31 +/- 3.09%); format: functional; conditions: HepG2, 24 h, read-out: Survival

Structure (SMILES) | IC50 (HepG2 [1]) [µg/mL] | also measured
Cc1ccc(OCc2nn(CN3CCOCC3)c(=S)n2/N=C/c2c[nH]nc2-c2ccc(Cl)cc2)cc1 | 54 (≈ 103 µM) | 
Cc1ccc(OCc2nn(CN(c3ccccc3)c3ccccc3)c(=S)n2/N=C/c2c[nH]nc2-c2ccc(F)cc2)cc1 | 90 (≈ 153 µM) | 
Cc1ccc(OCc2n[nH]c(=S)n2/N=C/c2c[nH]nc2-c2ccc(F)cc2)cc1 | 45 (≈ 110 µM) | 
CCc1n[nH]cc1/C=N/n1c(COc2ccc(C)cc2)n[nH]c1=S | > 100 | 
Cc1ccccc1OCc1nn(CN2CCOCC2)c(=S)n1/N=C/c1c[nH]nc1-c1ccc(Cl)cc1 | 54 (≈ 103 µM) | 
S=c1[nH]nc(COc2ccccc2)n1/N=C/c1c[nH]nc1-c1ccc(Cl)cc1 | 18 (≈ 43.8 µM) | 
Fc1ccc(-c2n[nH]cc2/C=N/n2c(COc3ccccc3Cl)n[nH]c2=S)cc1 | 71 (≈ 166 µM) | 
Cc1ccc(OCc2nn(CN3CCOCC3)c(=S)n2/N=C/c2c[nH]nc2-c2ccc(F)cc2)cc1 | 34 (≈ 67 µM) | 
Cc1ccc(OCc2n[nH]c(=S)n2/N=C/c2c[nH]nc2-c2ccc(Cl)cc2)cc1 | 28 (≈ 65.9 µM) | 
Fc1ccc(-c2n[nH]cc2/C=N/n2c(COc3ccccc3)n[nH]c2=S)cc1 | 71 (≈ 180 µM) | 
Cc1ccc(OCc2nn(CN(c3ccccc3)c3ccccc3)c(=S)n2/N=C/c2c[nH]nc2-c2ccc(Cl)cc2)cc1 | 97 (≈ 160 µM) | 
COc1cccc2c1C(=O)c1c(O)c3c(c(O)c1C2=O)C[C@@](O)(C(=O)CO)C[C@@H]3O[C@H]1C[C@H](N)[C@H](O)[C@H](C)O1 [DOXORUBICIN] | 17 (≈ 31.3 µM) | viability at 100 µg/mL (HepG2 [2]): 35.9%; viability at 10 µg/mL (HepG2 [3]): 51.2%; viability at 1 µg/mL (HepG2 [4]): 74.2%; viability at 0.1 µg/mL (HepG2 [5]): 90%
Cc1ccccc1OCc1n[nH]c(=S)n1/N=C/c1c[nH]nc1-c1ccc(Cl)cc1 | 44 (≈ 104 µM) | 
Cc1ccccc1OCc1n[nH]c(=S)n1/N=C/c1c[nH]nc1-c1ccc(F)cc1 | 48 (≈ 118 µM) | 
